Results published in ChEMBL document CHEMBL5518174 (Eur J Med Chem, 2024).
pIC50: −log10 of the molar value.

How the values were obtained:
[1] = Downregulation of HDAC2 protein expression in human NCI-H1975 cells assessed as fold change at 0.1 uM incubated for 24 hrs by immunoblotting analysis (reference value: 1); format: functional
[2] = Effect on HDAC4 protein expression in human NCI-H1975 cells assessed as fold change at 0.05 uM incubated for 24 hrs by immunoblotting analysis (reference value: 1); format: functional
[3] = target: T1, Polyamine deacetylase HDAC10 (Homo sapiens, UniProt Q969S8); experiment: Inhibition of recombinant human HDAC10 using acetylated luminogenic substrate incubated for 10 mins by ultra-glo recombinant firefly luciferase based luminescence assay
T1 sequence (Q969S8 whole entry): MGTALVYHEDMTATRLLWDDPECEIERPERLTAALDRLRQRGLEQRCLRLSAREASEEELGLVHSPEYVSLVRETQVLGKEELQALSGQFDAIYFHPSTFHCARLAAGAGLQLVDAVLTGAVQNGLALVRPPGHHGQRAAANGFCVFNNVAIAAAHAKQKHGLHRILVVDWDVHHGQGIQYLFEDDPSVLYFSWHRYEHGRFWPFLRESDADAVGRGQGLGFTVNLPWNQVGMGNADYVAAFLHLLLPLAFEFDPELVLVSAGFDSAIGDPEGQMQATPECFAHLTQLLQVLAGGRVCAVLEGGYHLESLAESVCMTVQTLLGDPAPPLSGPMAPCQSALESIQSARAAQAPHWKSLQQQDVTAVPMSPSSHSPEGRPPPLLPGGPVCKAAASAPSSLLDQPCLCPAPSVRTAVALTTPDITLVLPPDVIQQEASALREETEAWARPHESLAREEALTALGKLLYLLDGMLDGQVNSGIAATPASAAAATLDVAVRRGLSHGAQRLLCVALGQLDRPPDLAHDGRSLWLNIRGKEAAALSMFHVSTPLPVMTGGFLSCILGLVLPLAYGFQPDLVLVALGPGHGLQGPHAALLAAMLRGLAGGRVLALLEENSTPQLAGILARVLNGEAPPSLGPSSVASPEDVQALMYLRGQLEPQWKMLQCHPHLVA

Histone deacetylase 3 = Histone deacetylase 3 (Homo sapiens, UniProt O15379); experiment: Inhibition of recombinant human HDAC3 using acetylated luminogenic substrate incubated for 10 mins by ultra-glo recombinant firefly luciferase based luminescence assay
[4] = target: T2, Protein deacetylase HDAC6 (Homo sapiens, UniProt Q9UBN7); experiment: Inhibition of recombinant human HDAC6 using acetylated luminogenic substrate incubated for 10 mins by ultra-glo recombinant firefly luciferase based luminescence assay
T2 sequence (Q9UBN7 whole entry): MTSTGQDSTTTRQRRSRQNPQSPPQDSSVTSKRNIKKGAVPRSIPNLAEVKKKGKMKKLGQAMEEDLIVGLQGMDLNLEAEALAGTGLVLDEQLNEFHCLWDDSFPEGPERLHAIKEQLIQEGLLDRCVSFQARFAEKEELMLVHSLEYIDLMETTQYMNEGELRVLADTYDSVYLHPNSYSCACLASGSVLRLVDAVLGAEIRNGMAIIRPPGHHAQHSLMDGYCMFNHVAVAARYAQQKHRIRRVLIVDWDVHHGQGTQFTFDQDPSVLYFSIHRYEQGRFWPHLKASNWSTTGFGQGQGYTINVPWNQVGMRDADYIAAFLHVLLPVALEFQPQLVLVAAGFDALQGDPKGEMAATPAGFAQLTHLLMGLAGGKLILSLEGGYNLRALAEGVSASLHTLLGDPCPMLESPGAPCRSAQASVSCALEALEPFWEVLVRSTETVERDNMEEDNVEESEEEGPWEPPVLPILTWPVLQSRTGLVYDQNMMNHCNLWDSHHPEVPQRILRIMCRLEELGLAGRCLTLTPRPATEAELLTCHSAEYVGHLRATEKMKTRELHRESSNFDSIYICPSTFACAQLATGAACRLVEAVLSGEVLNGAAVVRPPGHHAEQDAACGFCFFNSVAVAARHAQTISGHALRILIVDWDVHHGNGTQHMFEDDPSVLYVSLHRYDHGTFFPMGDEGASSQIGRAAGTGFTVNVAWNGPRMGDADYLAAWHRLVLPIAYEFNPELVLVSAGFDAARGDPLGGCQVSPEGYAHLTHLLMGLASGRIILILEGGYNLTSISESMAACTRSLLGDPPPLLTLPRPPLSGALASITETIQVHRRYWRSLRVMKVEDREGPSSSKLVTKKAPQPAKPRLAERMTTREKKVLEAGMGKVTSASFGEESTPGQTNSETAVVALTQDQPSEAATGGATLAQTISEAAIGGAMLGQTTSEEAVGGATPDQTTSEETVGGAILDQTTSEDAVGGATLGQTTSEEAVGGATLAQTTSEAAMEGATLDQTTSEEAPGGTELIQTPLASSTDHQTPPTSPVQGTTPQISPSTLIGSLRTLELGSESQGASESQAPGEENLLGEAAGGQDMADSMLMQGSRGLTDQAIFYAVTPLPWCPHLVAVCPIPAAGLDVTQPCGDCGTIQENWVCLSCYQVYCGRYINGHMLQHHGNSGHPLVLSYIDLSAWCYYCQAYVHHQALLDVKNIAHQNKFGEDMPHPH

[5] = Downregulation of HDAC9 protein expression in human NCI-H1975 cells assessed as fold change at 0.05 uM incubated for 24 hrs by immunoblotting analysis (reference value: 1); format: functional
[6] = Downregulation of HDAC6 protein expression in human NCI-H1975 cells assessed as fold change at 0.05 uM incubated for 24 hrs by immunoblotting analysis (reference value: 1); format: functional
[7] = Effect on HDAC2 protein expression in human MDA-MB-231 cells assessed as fold change at 0.1 uM incubated for 24 hrs by immunoblotting analysis (reference value: 1); format: functional
[8] = Effect on HDAC4 protein expression in human MDA-MB-231 cells assessed as fold change at 0.1 uM incubated for 24 hrs by immunoblotting analysis (reference value: 1); format: functional
[9] = Downregulation of HDAC3 protein expression in human NCI-H1975 cells assessed as fold change at 0.1 uM incubated for 24 hrs by immunoblotting analysis (reference value: 1); format: functional
[10] = Effect on HDAC1 protein expression in human NCI-H1975 cells assessed as fold change at 0.05 uM incubated for 24 hrs by immunoblotting analysis (reference value: 1); format: functional
[11] = Effect on HDAC10 protein expression in human NCI-H1975 cells assessed as fold change at 0.05 uM incubated for 24 hrs by immunoblotting analysis (reference value: 1); format: functional
[12] = Toxicity in athymic nude BALB/c mouse xenografted with human MDA-MB-231 cells assessed as effect on creatinine level in serum at 3 mg/kg, ip administered 5 times a week for 7 weeks; format: organism-based; details: in vivo, 1176 h
[13] = Upregulation of acetylated H4 protein expression in human MDA-MB-231 cells assessed as fold change at 0.1 uM incubated for 24 hrs by immunoblotting analysis (reference value: 1); format: functional
[14] = Downregulation of HDAC8 protein expression in human NCI-H1975 cells assessed as fold change at 0.1 uM incubated for 24 hrs by immunoblotting analysis (reference value: 1); format: functional

Chain of Histone deacetylase 3 (O15379 whole entry): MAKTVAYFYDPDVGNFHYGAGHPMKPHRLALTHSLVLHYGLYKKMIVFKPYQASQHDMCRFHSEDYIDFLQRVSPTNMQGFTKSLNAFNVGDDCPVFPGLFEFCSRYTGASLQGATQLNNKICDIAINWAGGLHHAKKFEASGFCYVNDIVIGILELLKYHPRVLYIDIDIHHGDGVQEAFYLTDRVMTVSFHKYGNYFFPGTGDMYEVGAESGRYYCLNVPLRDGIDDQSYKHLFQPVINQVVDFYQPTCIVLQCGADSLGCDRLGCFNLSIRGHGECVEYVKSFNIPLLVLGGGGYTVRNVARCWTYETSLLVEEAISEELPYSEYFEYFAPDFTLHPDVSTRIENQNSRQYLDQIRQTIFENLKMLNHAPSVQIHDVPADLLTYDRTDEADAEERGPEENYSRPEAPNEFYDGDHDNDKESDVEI

CCOc1ccc(-c2nc(C(=O)NCc3ccc(C(=O)NO)cc3)c3[nH]c(=O)n(-c4cccnc4OC)c3n2)cn1
fold change (FC) [1]: 0.69 | fold change (FC) [2]: 1.33 | pIC50 [3]: 7.72 | pIC50 (Histone deacetylase 3): 8.06 | pIC50 [4]: 7.97 | fold change (FC) [5]: 0.5 | fold change (FC) [6]: 0.6 | fold change (FC) [7]: 1.25 | fold change (FC) [8]: 1.01 | fold change (FC) [9]: 0.37 | fold change (FC) [10]: 1.44 | fold change (FC) [11]: 1.09 | Activity [12]: Non-Toxic | fold change (FC) [13]: 2.91 | fold change (FC) [14]: 0.46
